Source: patent US8501762B2, “Tetrahydroprotoberberine compounds, the synthetic method and the use thereof” (Shanghai Institute of Materia Medica, Chinese Academy of …, priority 2005, dated 2013)
Structures can show the parent of a compound that is named as a salt.

Legend:
dopamine D1 receptor = dopamine D1 receptor (Homo sapiens, UniProt P21728); experiment: Dopamine receptor competitive binding, D1; conditions: for inhibition at 10 µM / Inhibition(%) for D1: tested at 1 × 10^−5 mol/L; for Ki: calculated from the inhibition data
Chain of dopamine D1 receptor (P21728 whole entry): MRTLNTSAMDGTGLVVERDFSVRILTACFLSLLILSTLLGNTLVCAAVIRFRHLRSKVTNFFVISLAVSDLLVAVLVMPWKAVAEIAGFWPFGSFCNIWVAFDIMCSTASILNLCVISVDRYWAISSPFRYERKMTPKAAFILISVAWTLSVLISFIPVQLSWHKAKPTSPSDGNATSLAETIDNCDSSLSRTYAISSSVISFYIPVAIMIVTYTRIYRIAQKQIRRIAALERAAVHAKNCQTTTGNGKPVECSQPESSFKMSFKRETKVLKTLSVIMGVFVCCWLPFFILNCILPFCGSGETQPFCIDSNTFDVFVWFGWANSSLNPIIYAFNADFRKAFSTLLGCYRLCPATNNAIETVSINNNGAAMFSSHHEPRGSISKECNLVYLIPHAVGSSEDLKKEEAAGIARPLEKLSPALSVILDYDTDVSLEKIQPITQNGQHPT
Method: (§1) 1. Dopamine Receptor Binding Studies
The Ki is calculated according the inhibition data tested.

dopamine D2 receptor = dopamine D2 receptor (Homo sapiens, UniProt P14416); experiment: Dopamine receptor competitive binding, D2; conditions: for inhibition at 10 µM / Inhibition(%) for D2: tested at 1 × 10^−5 mol/L; for Ki: calculated from the inhibition data
Chain of dopamine D2 receptor (P14416 whole entry, species assumed): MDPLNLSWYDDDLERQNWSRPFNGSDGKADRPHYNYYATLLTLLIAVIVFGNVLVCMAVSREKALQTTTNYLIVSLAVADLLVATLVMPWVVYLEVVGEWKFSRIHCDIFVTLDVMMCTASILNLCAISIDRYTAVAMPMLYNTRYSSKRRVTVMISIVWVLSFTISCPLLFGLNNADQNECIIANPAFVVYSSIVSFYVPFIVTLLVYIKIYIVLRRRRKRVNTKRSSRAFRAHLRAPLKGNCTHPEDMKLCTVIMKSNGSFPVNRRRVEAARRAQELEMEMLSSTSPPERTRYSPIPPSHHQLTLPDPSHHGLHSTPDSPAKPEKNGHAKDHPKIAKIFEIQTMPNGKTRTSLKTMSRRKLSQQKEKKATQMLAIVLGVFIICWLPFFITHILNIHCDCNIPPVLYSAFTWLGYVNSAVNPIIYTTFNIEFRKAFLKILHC
Method: as §1
The affinities of these compounds on dopamine receptors were evaluated with competitive receptor binding assays (Acta Pharmacol Sin, 1989, 10:104 and Acta Pharmacol Sin, 2003, 24(3): 225-229). The Ki is calculated according the inhibition data tested.

6-OHDA-lesioned rats = 6-OHDA-lesioned rats rotation test; type: in vivo; conditions: 10 mg/kg
Method: 2. 6-OHDA-Lesioned Rats Rotation Test
Some of the compounds were evaluated on 6-OHDA-lesioned rats model.

mice = experiment: PCP-induced immobility test in mice; type: in vivo; conditions: 20 mg/kg (i.g.), PCP-treated mice; PCP group 78.1±28 s, P<0.05
Method: 3. PCP-Induced Immobility Test in Mice
Phencyclidine(PCP)-induced immobility test in mice was selected as the model to evaluate the antipsychotic effect of some compounds of the present invention (Br J Pharmacol, 1995, 116: 2531-2537). The dose is selected according the ED50 of l-CSLMS. Given PCP, immobility times of mice was increased, whereas the active compound can decrease the immobility time. At 20 mg/kg (i.g.), the immobility time of compound of example 47 is 54.9±19 s, and the immobility time of l-CSLMS is 48.0±27 s, which has statistically significant differences (P<0.05) compared to PCP group (78.1±28 s).

[1] = preliminary clinic studies, cited from earlier work

Row | inhibition at 10 µM (dopamine D2 receptor) | SMILES | inhibition at 10 µM (dopamine D1 receptor) | Ki (dopamine D1 receptor) | further results
1 | – | COc1cc2c(cc1OCc1ccccc1)C1Cc3c(Cl)cc(OC)c(OCCOCCO)c3CN1CC2 (stereo not drawn) [Example 18, 2-benzyloxy-3,10-dimethoxy-9-[2-(2-hydroxy-ethoxy)-ethoxy]-12-chloro-5,8,13,13a-tetrahydro-6H-dibenzo[a,g]quinolizine] | – | – | melting point: 122 °C
2 | 57.4% | COc1cc2c(cc1O)C1Cc3c(Cl)cc(OC)c(OCCO)c3CN1CC2 (stereo not drawn) [Example 17, 2-hydroxy-3,10-dimethoxy-9-(2-hydroxy-ethoxy)-12-chloro-5,8,13,13a-tetrahydro-6H-dibenzo[a,g]quinolizine] | 97.9% | – | –
3 | – | COc1cc2c(cc1OC(C)=O)C1Cc3ccc(OC(C)=O)c(OC)c3CN1CC2 (single isomer, unassigned; (-)) [Example 48, (−)-2,10-diacetoxy-3,9-dimethoxy-5,8,13,13a-tetrahydro-6H-dibenzo[a,g]quinolizine] | – | – | effect in 6-OHDA-lesioned rats model (6-OHDA-lesioned rats): positive effects
4 | – | COc1cc2c(cc1O)C1Cc3c(Cl)cc(OC)c(OC(C)=O)c3CN1CC2 (stereo not drawn) [Example 7, 2-hydroxy-3,10-dimethoxy-9-acetoxy-12-chloro-5,8,13,13a-tetrahydro-6H-dibenzo[a,g]quinolizine] | – | 10.7 ± 1 nM | Inhibition(%) for D1 (dopamine D1 receptor): 100%; Ki (dopamine D2 receptor): 6900 ± 1500 nM; Inhibition(%) for D2 (dopamine D2 receptor): 100.0%; effect in 6-OHDA-lesioned rats model (6-OHDA-lesioned rats): positive effects
5 | 93.3% | Oc1cc2c(cc1O)C1Cc3c(Cl)cc(O)c(O)c3CN1CC2 (stereo not drawn) [Example 44, 2,3,9,10-tetrahydroxy-12-chloro-5,8,13,13a-tetrahydro-6H-dibenzo[a,g]quinolizine] | 100% | – | effect in 6-OHDA-lesioned rats model (6-OHDA-lesioned rats): positive effects
6 | – | CC(=O)O.COc1cc2c(cc1OC(C)=O)C1Cc3c(Cl)cc(OC)c(OC(C)=O)c3CN1CC2 (stereo not drawn) [Example 8, 2,9-diacetoxy-3,10-dimethoxy-12-chloro-5,8,13,13a-tetrahydro-6H-dibenzo[a,g]quinolizine acetate] | – | – | Inhibition(%) for D1 (dopamine D1 receptor): 100.0%; Inhibition(%) for D2 (dopamine D2 receptor): 93.8%
7 | – | COc1cc(F)c2c(c1OC)CN1CCc3cc4c(cc3C1C2)OCO4 (stereo not drawn) [Example 63, 2,3-methylenedioxyl-9,10-dimethoxy-12-fluoro-5,8,13,13a-tetrahydro-6H-dibenzo[a,g]quinolizine] | – | – | Inhibition(%) for D1 (dopamine D1 receptor): 95.2%
8 | – | COc1cc2c(cc1O)[C@@H]1Cc3c(Cl)cc(OC)c(O)c3CN1CC2 [l-CSLMS, S-chloroscoulerine mesylate, reference compound] | – | – | Ki (dopamine D2 receptor): 1700 ± 500 nM; immobility time (mice): 48.0 ± 27 s
9 | – | COc1cc2c(cc1O)[C@@H]1Cc3ccc(O)c(OC)c3CN1CC2 [l-SPD, l-Stepholidine] | – | – | side effects ([1]; schizophrenia): few side effects; activity in the treatment of schizophrenia [1]: favorable activity
10 | – | COCCOCCOCC(=O)Oc1c(OC)cc(Cl)c2c1CN1CCc3cc(OC)c(O)cc3C1C2 (stereo not drawn) [Example 43, 2-hydroxy-3,10-dimethoxy-9-{2-[2-(2-methoxy-ethoxy)-ethoxy]-acetoxy-}-12-chloro-5,8,13,13a-tetrahydro-6H-dibenzo[a,g]quinolizine] | – | 404 ± 188 nM | –
11 | 100% | CCOC(=O)Oc1c(OC)cc(Cl)c2c1CN1CCc3cc(OC)c(O)cc3C1C2 (stereo not drawn) [Example 21, 2-hydroxy-3,10-dimethoxy-9-ethoxycarbonyloxy-12-chloro-5,8,13,13a-tetrahydro-6H-dibenzo[a,g]quinolizine] | 100% | 2.6 ± 0.7 nM | –
12 | – | COc1cc2c(cc1O)C1Cc3c(Cl)cc(OC)c(O)c3CN1CC2 (stereo not drawn) [CSL, 2,9-dihydroxy-3,10-dimethoxy-12-chloro-5,8,13,13a-tetrahydro-6H-dibenzo[a,g]quinolizine, reference compound] | – | 6.1 ± 3 nM | –
13 | – | COc1cc2c(cc1O)C1Cc3c(Cl)cc(OC)c(OC(C)=O)c3CN1CC2 (single isomer, unassigned; (-)) [Example 50, (−)-2-hydroxy-3,10-dimethoxy-9-acetoxy-12-chloro-5,8,13,13a-tetrahydro-6H-dibenzo[a,g]quinolizine] | 100% | – | Inhibition(%) for D2 (dopamine D2 receptor): 58.5%
14 | 44% | COc1cc2c(cc1OCc1ccccc1)C1Cc3c(Cl)cc(OC)c(OC(=O)[C@@H](N)Cc4ccccc4)c3CN1CC2 (stereo partly drawn) [Example 23, 2-benzyloxy-3,10-dimethoxy-9-phenylalanyloxy-12-chloro-5,8,13,13a-tetrahydro-6H-dibenzo[a,g]quinolizine] | 77.5% | – | –

Row | SMILES | inhibition at 10 µM (dopamine D2 receptor) | inhibition at 10 µM (dopamine D1 receptor) | Ki (dopamine D1 receptor) | further results
15 | COCCOCCOCC(=O)Oc1cc2c(cc1OC)CCN1Cc3c(c(Cl)cc(OC)c3OC(=O)COCCOCCOC)CC21 (stereo not drawn) [Example 42, 2,9-bis-{2-[2-(2-methoxy-ethoxy)-ethoxy]-acetoxy-}3,10-dimethoxy-12-chloro-5,8,13,13a-tetrahydro-6H-dibenzo[a,g]quinolizine] | 39.7% | 96.2% | 35.4 ± 4.4 nM | Ki (dopamine D2 receptor): 14900 ± 200 nM
16 | COc1cc2c(cc1OC(C)=O)C1Cc3ccc(OC)c(OC(C)=O)c3CN1CC2 (stereo not drawn) [Example 34, 2,9-diacetoxy-3,10-dimethoxy-5,8,13,13a-tetrahydro-6H-dibenzo[a,g]quinolizine] | 90.7% | 99.4% | 51.8 ± 32.2 nM | Ki (dopamine D2 receptor): 10600 ± 2600 nM
17 | COc1cc2c(cc1OC(C)=O)C1Cc3c(Cl)cc(OC)c(OC(C)=O)c3CN1CC2 (single isomer, unassigned; (-)) [Example 47, (−)-2,9-diacetoxy-3,10-dimethoxy-12-chloro-5,8,13,13a-tetrahydro-6H-dibenzo[a,g]quinolizine] | 77.4% | 100% | – | immobility time (mice): 54.9 ± 19 s
